melting point [°C]	SMILES
118 to 121	CCOC(=O)C(C)(CCCN(C)CCc1ccc(OC)c(OC)c1)c1ccc(OC)c(OC)c1 (centres undefined)
155 to 156	N#CN=C(Nc1cccnc1)NC1CCCC1
260 to 270	CC(c1ccccc1)c1cc2c(=O)[nH]c(N)nc2s1 (centres undefined)
116 to 117	CCOC(=O)C1(C(=O)OCC)CCc2cc(Br)ccc2N1Cc1ccccc1
90 to 92	Cc1cc(SC2=C(O)CC(C3CCCC3)(C3CCCC3)OC2=O)c(C(C)(C)C)cc1OCCO
141 to 149	CC1(C)Cc2cc(O)c3c(c2C(c2cccc(-c4ccncc4)c2)=N1)CC(C)(C)O3
186 to 187	CC(C)(C)c1ccc(S(=O)(=O)Nc2nc(Cl)ncc2Oc2ccccc2Cl)cc1
87 to 88	Fc1ccc(C(Cl)(Cn2cncn2)C(F)(F)F)c(F)c1 (centres undefined)
46 to 47	COc1ccccc1C(=O)c1ccc(Cl)nc1
206 to 207	COc1cccc(OC)c1-c1ccc(C[C@H](NC(=O)c2c(Cl)cc(F)cc2Cl)C(=O)O)cc1
164 to 166	COc1ccc(C(=O)Nc2c(Cl)cncc2Cl)nc1OC1CCCC1
143 to 144	O=C1NCCc2sc3ccccc3c21
64 to 66	O=C(CCc1ccc(Cl)cc1Cl)NC1N=C(C2CC2)c2ccccc2N(CC(F)(F)F)C1=O (single isomer, unassigned; (+))
132 to 134	COc1ccc(-c2nc(-c3ccc[nH]3)sc2-c2ccc(OC)cc2)cc1
126 to 127	CC(C)CC1C(=O)NCCN1Cc1ccccc1 (centres undefined)
151 to 152	CCOC(=O)c1c(C(C)(C)O)nc(CO)n1Cc1ccc(-c2ccccc2-c2nnnn2C(c2ccccc2)(c2ccccc2)c2ccccc2)cc1
82 to 83	N#Cc1ccc(-c2oncc2CCCO)cc1
163 to 167	CC(C)(C)OC(=O)N1CCC(c2nc3cc(-c4ccc(-c5nnn[nH]5)c(F)c4)ccc3o2)CC1
225	CCOC(=O)C1=CC(C(=O)c2cc(Br)ccc2O)=CN2CCc3c([nH]c4ccc(OC)cc34)C12C(=O)OCC (centres undefined)
89	COC(=O)c1c(C)nc2ccc(Br)cc2c1NCc1ccccc1
140 to 143	O=C(O)CCCCCCc1ccc(CCNC(=O)c2ccc(Cl)cc2)cc1
145 to 147	COc1cccc(C(=O)O)c1C
321 to 323	Cn1c(=O)c(-c2ccc(Cl)cc2Cl)cc2c3cc(-c4nnc(N)s4)ccc3n(C)c21
87 to 88	CCCN(CCC)C(=O)CNc1nc(-c2ccccc2)nc2c1CCCC2

melting point [°C]	SMILES
93 to 95	CC(C)N1CCC(N2CCN(CCN3CCCCC3)C2=C(C#N)C#N)CC1
159 to 164	Cc1c(F)cc(C(=O)NCCC(C)C)cc1-c1ccc(C(=O)NCC(C)(C)C)cc1C(=O)Nc1nccs1
116 to 117	COC(=O)CC1COc2cc(OCc3csc(-c4ccccc4)n3)ccc21 (centres undefined)
155 to 161	NC(=NO)c1ccc(I)cc1
99 to 101	S=c1c2ccc(Cl)cc2nc2n1CCCCC2
144 to 146	CSc1ccc(NC(=N)c2ccc(C(F)(F)F)cc2)cc1
208 to 212	COc1ccccc1C1Cc2c(ccn2C)C2C(=O)NC(=O)C12 (centres undefined)
133 to 135	COC(=O)C1Cc2ccc([N+](=O)[O-])cc2CN1 (centres undefined)
96 to 98	COC(=O)c1cc2ccc(SCCCc3cc4c(cc3OCc3ccccc3)CC(CCc3ccccc3)O4)cc2nc1OC (centres undefined)
83 to 84	Cc1cn(C2CC(O)(COCc3ccccc3)C(CO)O2)c(=O)n(COCc2ccccc2)c1=O (centres undefined)
115 to 116	O=C(c1cccnc1)N1CCC(c2ccccc2Cl)=N1
140	CCOC(=O)c1cc2cc(N=[N+]=[N-])ccc2[nH]1
180 to 186	CC(=O)Nc1ccc2c3c(cccc13)CC2
237 to 238	Cc1c(Cc2nc3n(-c4c(Cl)cc(Cl)cc4Cl)[nH]c(C(C)C)c-3c(=O)n2)cccc1NC(=O)CCl
150 to 152	O=CNCc1ccc2[nH]cc(CCCN3C(=O)c4ccccc4C3=O)c2c1
155 to 157	CCNc1cccnc1N1CCN(C(=O)c2ccc(C(=O)O)cn2)CC1
185	CC1C(=O)N(c2ccc3c(c2)OCO3)C(=S)N1c1ccc(Oc2ccccc2)cc1 (centres undefined)
> 300	N#Cc1ccc(C(=O)N2CCc3[nH]c4c(cnc5cc(Cl)ccc54)c3C2)cc1
206	COc1cc(C(=O)Oc2ccc3c(OC(=O)c4ccc(O)c(OC)c4)c4cc(OC(=O)c5ccc(O)c(OC)c5)ccc4cc3c2)ccc1O
126 to 130	COc1ccc(NC(=O)N(C)C)cc1
111 to 113	COC(=O)c1cncn1C1c2cccc(Cl)c2CC1(C)C (centres undefined)
108 to 109	CCOC(=O)C(=CNc1cscc1OCC)C(=O)OCC
53.6 to 54.3	COC(=O)c1c(F)c(F)c(N=[N+]=[N-])c(F)c1F
151 to 152	Cc1ccc(P(=O)(C(=O)c2c(C)cc(C)cc2C)C(=O)c2c(C)cc(C)cc2C)cc1

melting point [°C]	SMILES
45.8 to 52.8	CCc1nn2c(-c3ccc(OC)cc3Cl)cccc2c1N(CCF)CCOC
269 to 271	O=C1CCC(N2Cc3c(OCc4ccc5ccccc5n4)cccc3C2=O)C(=O)N1 (centres undefined)
195 to 197	CC(=O)C1=C(O)C(=C(C)Nc2ccc(OC(=O)NCc3ccccc3)cc2)C(=O)OC1=O
120 to 130	CC(C)C[C@H](NS(=O)(=O)c1ccc2c(c1)Sc1ccccc1O2)C(=O)O
258 to 260	Cc1nc2nc(SCc3ccccc3)nn2c(O)c1Cl
107 to 108	CC(C)(O)c1cc(Br)cnc1N
168 to 170	Cc1nc(CCO)c2c(n1)N(N)C(=O)C(C)(C)O2
> 270	N#CNC(=S)Nc1ccc(OCc2ccccc2)cc1
226 to 228	COc1c(C2CCN(CCCCNC(=O)c3ccc(-c4ccc(NC(=O)C(F)(F)F)cc4)cc3)CC2)ccc2c1CCCC2
196	CCOC(=O)c1nc2scc(COC(=O)c3ccc(CO)cc3)c2c(=O)[nH]1
69	Clc1ccc(N2CCCCC2)cc1
79 to 82	CCCCNS(=O)(=O)c1ccc(N2CCC(=O)CC2)cc1
171 to 174	O=C(O)CN(CC(=O)O)CC(c1ccc([N+](=O)[O-])cc1)N(CC(=O)O)CC(=O)O (centres undefined)
129 to 130	COc1ccc(NC(C)=O)cc1OC(F)F
93 to 94	CCCCCCCCCCCCC/C=C(\C(=O)Nc1ccc(C(=O)OC)cc1)c1ccc2c(c1)C(C)(C)CCC2(C)C
176 to 178	COc1cc2c(c(Cl)c1Cl)C(=O)C(C)(c1ccc(Cl)cc1)C2 (centres undefined)
95 to 97	COc1ccc(Cn2nc(CO)c3ccccc32)cc1
291 to 295	CC(C)n1nc(-c2c(-c3ccccc3)nc(N)[nH]c2=O)ccc1=O
95 to 97	Cc1ccc(S(=O)(=O)N2CC3CCCNC3C2)cc1 (centres undefined)
205 to 206	CC(=O)Nc1nc(CCc2ccc(C#N)cc2)cs1
236 to 238	COC(=O)C1=C(C)NC2=C(C1c1cccc([N+](=O)[O-])c1)S(=O)(=O)CCC2 (centres undefined)
222 to 224	CSCCCn1cc(C2=C(c3cn(C)c4ccccc34)C(=O)NC2=O)c2ccccc21
> 250	CC(=O)NC[C@H]1CN(c2ccc(N3CCN(C(=O)CCC(=O)c4ccc(C(N)=O)cc4)CC3)c(F)c2)C(=O)O1
161 to 163	Cc1c(-c2ccccc2)nn(C)c1C(=O)O

melting point [°C]	SMILES
201 to 203	CCOC(=O)c1cn(C(c2ccccc2)(c2ccccc2)c2ccccc2)nn1
192 to 193	CS(=O)(=O)c1ccc(-n2cncc2-c2ccc(Cl)cc2)cc1
29 to 30	C=Cc1ccc(C#N)cn1
202	FC(F)(F)c1ccc(-c2cc(C(F)(F)F)n3ncc(-c4ccccn4)c3n2)cc1
191	Cc1ccc2cccc(OCc3c(Cl)ccc(S(=O)(=O)NC(C)(C)C)c3Cl)c2n1
342 to 344	CN(C)c1ccc2c(c1)C(=O)CC(c1cccc(O)c1)=N2
164 to 165	CCOC(=O)c1cc2nc(C)nc-2[nH]c1C(=O)OCC
183	CCc1ccccc1NC=C1C(=O)N(c2ccccn2)N=C1C
63 to 65	CN(C)Cc1ccc([C@H]2CC[C@H](O)CC2)cc1
128 to 130	COc1ccccc1N1CCN(CCCCOc2ccc(-c3cn4ccsc4n3)cc2)CC1
127 to 129	COc1ccc(C(C)=O)c(OCCCC(=O)O)c1
159 to 160	CC(C)(C)OC(=O)NC(Cc1cnc2ccccc2c1)C(=O)O (centres undefined)
232 to 233	COC(=O)c1nc2cc(Cl)ccc2c(O)c1C(=O)OC
159 to 161	COc1ccc2c(c1)CCC1C2CCC2(C)C(O)C(N)CC12 (centres undefined)
108 to 128	CCCCC(CC(=O)Nc1cc(C(N)=O)ccc1C(C)(C)C)c1ccc(OCCCS(=O)(=O)CCC)cc1OC (centres undefined)
131 to 132	CC(=O)OC[C@H](c1ccccc1)N1C(=O)C=CC1=O
238 to 240	CNc1nc(-c2cccc(C(=O)Nc3cccnc3)c2)c2cc(OC)c(OC)cc2n1
100 to 104	COc1ccc(C(O)Cc2c(Cl)cncc2Cl)c2c1OC(C)(C)C2 (centres undefined)
108 to 110	O=C(c1ccccc1)N1CCc2cc(CCl)ccc21
203 to 205	COc1ccc(N2CCN(c3ccc(S(=O)(=O)N[C@@H](Cc4ccccc4)C(=O)O)cc3)CC2)cc1
191 to 192	COc1cc2cc(C(=O)N3CC(CCl)c4c3cc(NC(=O)OCc3ccc([N+](=O)[O-])cc3)c3ccccc43)[nH]c2c(OC)c1OC (centres undefined)

SMILES	melting point [°C]
COc1cccc(C#Cc2ncn3c2[C@@H]2CCCN2C(=O)c2c(Cl)cccc2-3)c1	204 to 205
Cc1cc(F)ccc1-n1c(CF)nc2ccc(N)cc2c1=O	193 to 196
COC(=O)/C=C/c1c(SC(F)(F)F)c(C#N)nn1-c1c(Cl)cc(C(F)(F)F)cc1Cl	90
Nn1c(=O)cc2n(C3CC3)c3cc(N4CCNCC4)c(F)cc3n2c1=O	232 to 234
CCC1=NC(=NOC(=O)NC)SC1(C)C	98 to 100
N=C1CCCN1Cc1ccc(Cl)nc1	166

Reference: a melting point compilation (Tetko et al.; mined from patent text by program, amines drawn as free bases though some values may be those of a salt)
